The values that follow come from patent US8349310B2, “Attractant compositions and method for attracting biting insects” (Bedoukian Research, Inc., priority 2007, dated 2013).

Each structure is given as a SMILES string.

One assay deals with Culex quinquefasciatus. Particulars: electrophysiology test, reported in a published article; cited from earlier work.
Assay [1] concerns mosquitoes. As to the kind of experiment: Field trap catch, Hock Model 1012 traps: CO2 plus 1,5Z-octadien-3-ol vs CO2 alone (Example 1). It is filed as in vivo. An excerpt:
(§1) Although, as stated above, this invention may be employed with any suitable trap or system, the invention has been tested and employed in a trap or system as described hereinafter. Mosquito traps Model 1012 manufactured by John W. Hock Company in Gainesville, Fla. were used in these tests. The traps use a stream of CO2 directed in the vicinity of a collection bag, with a fan used to blow mosquitoes into the bag. The light supplied to the trap was turned off. The traps were spaced 65-70 feet apart at the edge of a wetland in Danbury, Conn., at least 25 feet from any buildings. The 1,5-octadien-3-ol component was incorporated into a wax lure of the type manufactured by BioSensory, Inc. and placed near a stream of CO2 which was being released at a rate of approximately 150 ml/minute. The traps were operated from approximately 4:00 PM until 9:00 AM the next day. Daytime temperatures were approximately 70-75° F. during the trials.
To establish a baseline control the Hock traps with just CO2, and no added 1,5-octadien-3-ol component, were operated in the two areas on three days. The trap in area 1 (Trap A) caught 32 of the mosquitoes caught, and the trap in area 2 (Trap B) caught 23 of the mosquitoes caught. […]

Assay [2] has as its system mosquitoes. Description: Field trap catch, Hock traps: r-1-octen-3-ol with or without r-1,5Z-octadien-3-ol (Example 2). In kind it is in vivo. The settings on record: for mosquitoes caught: Traps A and B, twelve day test period, attractant in 2 ml diethyl phthalate, 0.04 g r-1,5Z-octadien-3-ol tested together with 0.2 g r-1-octen-3-ol, r-1-octen-3-ol alone at 2 g.
From the text: as §1
This test was conducted over a twelve-day period. The test was conducted to determine if 1,5-octadien-3-ol increases the trap catch of mosquitoes when added to a trap already containing the known attractant r-1-octen-3-ol. Traps A in area 1 and B in area 2, as described in Example 1, were employed. Both traps A and B were tested with (1) 0.2 g 100% r-1-octen-3-ol+0.04 g r-1,5Z-octadien-3-ol. in 2 ml diethyl phthalate, and (2) with 2 g 100% r-1-octen-3-ol in 2 ml diethyl phthalate (i.e., with no 1,5Z-octadien-3-ol present). Over the twelve day test period the traps with the 1,5z-octadien-3-ol present caught 239 mosquitoes and the traps without the 1,5Z-octadien-3-ol present caught 221 mosquitoes. Thus, the presence of the 1,5Z-octadien-3-ol increased the catch of mosquitoes by 8%.

`C=CC(O)CC=CCC` (stereo not drawn) [1,5-octadien-3-ol]: the “ability to attract mosquitoes” value in the assay with Culex quinquefasciatus is given as “confirmed”. As for `C=CC(O)C/C=C\CC` (stereo not drawn) [1,5Z-octadien-3-ol], the mosquitoes caught in the assay with mosquitoes [1] (Trap A (area 1), compound in trap plus 150 ml/minute CO2, four day test period, Trap B with CO2 only caught 35) worked out at 84 mosquitoes. In addition, the “catch ratio Trap A to Trap B” value in the assay with mosquitoes [1] (Trap A with compound plus CO2 vs Trap B with CO2 only, four days, baseline catch ratio 1.4 with CO2 only in both traps) was determined as 2.4. For the compound `C=C[C@H](O)C/C=C\CC` [r-1,5Z-octadien-3-ol], the mosquitoes caught in the assay with mosquitoes [2] is 239 mosquitoes. Besides, the “increase of the catch of mosquitoes” value with mosquitoes [2] (r-1-octen-3-ol plus r-1,5Z-octadien-3-ol vs r-1-octen-3-ol alone, twelve days) stood at 8%.

Turning to `C=C[C@H](O)CCCCC` [r-1-octen-3-ol, reference compound], the mosquitoes caught with mosquitoes [2] came out at 221 mosquitoes.
